For series [1] the following is noted: cited from earlier work.
Series [2] in a line: Dissolution studies in heptane (solubility curve, dissolution point by turbidity). Type of series: physicochemical. As to conditions: for Dissolution Temperatures: in heptane, heating ramp 0.2°C/min, 10% reduction in turbidity; for solubility in heptane, compared between forms: temperature range studied 17-82°C. As to the method: To determine the solubility curve of a given polymorphic form, different concentrations in heptane were prepared and charged to a HEL multi-reactor, using 100 mL vessels. These reactors were equipped with 4-blade PTFE turbines, (set to 150 rpm), temperature probes and turbidity probes. Temperature was controlled by applying the same re-circulating heater-chiller unit to all vessel jackets and using individual temperature compensation by external heating plates below each vessel. Heating ramps of 0.2°C/min were applied to each vessel, and the dissolution point determined by a 10% reduction in turbidity. […] Table VI. Results for solubility in heptane

A short description of series [3]: Dissolution studies in ethanol-water (volume of ethanol required for dissolution of an aqueous suspension). Type of series: physicochemical. As to conditions: suspension in water 20 mL with DSS 0.02 g, 20°C, ethanol added at 0.2 mL/min, 50% reduction in turbidity. Here is the method:
Dissolution experiments were performed for forms I, III and C of Efavirenz. To an aqueous suspension of each form, ethanol was added and the volume recorded in order for dissolution. Efavirenz is hydrophobic and has a tendency to float in water. To improve the dispersion of efavirenz in water, a surfactant was used, namely, docusate sodium (DSS), the dioctyl ester of sodium sulfosuccinate. DSS is a widely used pharmaceutical excipient and food additive. Efavirenz, polymorphic form and quantity as indicated in the table V, was suspended in water (milliQ, 20 mL) with DSS (docusate sodium, 0.02 g) in a 100 mL vessel. This mixture was placed in an ultrasonic batch for 5 minutes to break up any agglomerates and then the vessel was transferred to an automated (HEL) reaction block equipped with pitched 4-blade turbine PTFE agitators (set to 120 rpm), turbidity probes and syringe pumps. The temperature inside the vessels was controlled by jackets connected to a re-circulating heater-chiller unit. The mixtures were agitated at 20°C and turbidity probes adjusted before addition of ethanol at a continuous rate of 0.2 mL/min via the syringe pumps. The volume of ethanol required for dissolution was taken as that required for a 50% reduction in the turbidity reading. […]

A short description of series [4]: Accelerated stability conditions. Format: physicochemical. The text has this: Thus, in one aspect, the present invention is directed to a polymorphic form C of Efavirenz characterized by an X-ray powder diffraction pattern which comprises characteristic 2θ values at: 7.1, 7.3, 11.0, 13.8, 14.2, 14.6, 19.1, 20.9, 21.2, 24.5 and 24.9 ± 0.2 degrees 2θ.
Series [5] can be described thus: Comparative and competitive slurry experiments (mixtures of forms, followed by powder X-ray diffraction). Type of series: physicochemical. As to the method: Mixtures of Efavirenz form I with form III or form C were prepared according to table II. The suspensions were stirred at 20°C with small PTFE coated cross-shaped magnetic stirrers and samples taken after 1, 2 and 7 days, filtered, dried at ambient temperature under vacuum for 20 minutes and analyzed by powder X-ray diffraction.

[6] abbreviates: slurry in ethanol/water, 20°C, samples after 1, 2 and 7 days.

On to `O=C1Nc2ccc(Cl)cc2[C@@](C#CC2CC2)(C(F)(F)F)O1` [Efavirenz, (4S)-6-chloro-4-(cyclopropylethynyl)-4-(trifluoromethyl)-1,4-dihydro-2H-3,1-benzoxazin-2-one], for which, in series [1], the aqueous solubility entry is “extremely poor”.
`O=C1Nc2ccc(Cl)cc2[C@@](C#CC2CC2)(C(F)(F)F)O1` [Form C, (4S)-6-chloro-4-(cyclopropylethynyl)-4-(trifluoromethyl)-1,4-dihydro-2H-3,1-benzoxazin-2-one]: the “Dissolution Temperatures” value is 17 °C in series [2] (concentration 0,010 g/mL), 49 °C in series [2] (concentration 0,040 g/mL), 56 °C in series [2] (concentration 0,067 g/mL) and 71 °C in series [2] (concentration 0,200 g/mL). Besides, the “solubility in heptane, compared between forms” value in series [2] is “more soluble in heptane than forms I and III”. Moreover, the “volume of ethanol required to achieve dissolution, compared between forms” value in series [3] is “consistently requires less volume of ethanol than forms I and III”. Besides, the stability result in series [4] (25°C and 60% relative humidity) is on record as “stable during at least three months”; in series [4] (40°C and 75% relative humidity) it was “stable during at least three months”. Moreover, the “conversion of form C into form I” value in series [5] (form C in its pure form, without any contamination with form I) is “not observed”. Besides, the “content of form C in a mixture of form I and form C” value is recorded as “decreases with time, although some still remains in the mixture after 7 days” in series [5] (setting [6]); “a similar trend is observed although the transformation is slower” in series [5] (slurry in methanol/water, 20°C, samples after 1, 2 and 7 days).
Take `O=C1Nc2ccc(Cl)cc2[C@@](C#CC2CC2)(C(F)(F)F)O1` [Form I, (4S)-6-chloro-4-(cyclopropylethynyl)-4-(trifluoromethyl)-1,4-dihydro-2H-3,1-benzoxazin-2-one]: the “Dissolution Temperatures” value in series [2] (concentration 0,010 g/mL) is 29 °C; in series [2] (concentration 0,040 g/mL) it was 64 °C; in series [2] (concentration 0,067 g/mL) it was 74 °C; in series [2] (concentration 0,200 g/mL) it was 82 °C. For the same compound, in series [2], the “solubility in heptane, compared between forms” value is given as “less soluble at high temperature”. Also, in series [5] (setting [6]), the “content of form I in a mixture of form I and form III” value is “decreases with time, and after 7 days the mixture has converted completely to form III”.
Take `O=C1Nc2ccc(Cl)cc2[C@@](C#CC2CC2)(C(F)(F)F)O1` [Form III, (4S)-6-chloro-4-(cyclopropylethynyl)-4-(trifluoromethyl)-1,4-dihydro-2H-3,1-benzoxazin-2-one]: the “Dissolution Temperatures” value in series [2] (concentration 0,010 g/mL) was determined as 31 °C; in series [2] (concentration 0,040 g/mL) it was 55 °C; in series [2] (concentration 0,067 g/mL), 62 °C; in series [2] (concentration 0,180 g/mL), 75 °C. Further, the “solubility in heptane, compared between forms” value in series [2] is recorded as “less soluble at low temperature”.

The values are drawn from patent EP2471783A1, “Novel polymorphic form of efavirenz” (Esteve Química, S.A., priority 2010, dated 2012).
